# Patent US7530196B2, “Method for improving plant growth by application of a mixture of sulfur and complexing agent” (BASF Aktiengesellschaft, priority 2001, dated 2009)
# Key:
# Chinese leaves [1] = experiment: Container experiment with Chinese leaves: growth (fresh-matter yield); assay type: in vivo, Chinese leaves "Kasumi"
# Procedure: (§1) Experimental Set-Up: Container Experiment With Chinese Leaves • 1. without addition • 2. 8 mg S/pot/week • 3. 80 mg S/pot/week • 4. 2 mg sodium lignosulfonate/pot/week • 5. 20 mg sodium lignosulfonate/pot/week • 6. 10 mg mixture of 80% by weight sulfur and 20% by weight sodium lignosulfonate/pot/week • 7. 100 mg mixture of 80% by weight sulfur and 20% by weight sodium lignosulfonate/pot/week Method: Plant Species: Chinese leaves “Kasumi”, sown into P-soil in multi-cell trays, age at pricking out time into experimental containers: approx. 14 days; the same containers are planted twice. Soil from Ruchheim, loam, pH 7.4, mixed with quartz sand (for retaining the structural stability during the container experiment). PE pots/15, approx. 1 l substrate (1.5 kg). Greenhouse, 25° C., supplementary lighting suitable for assimilation. Plant food 15+10+15+2 with trace elements without chelating agent (LAB 2411D; 0.5 g/container/week). Using a syringe and cannula into the soil at a depth of approx. 1 cm to simulate trickle irrigation conditions. The additions were applied in one application weekly via the cannula. 10 mg of mixture M according to the invention/container/week correspond to approx. 5 kg/ha.
# Chinese leaves [2] = experiment: Container experiment with Chinese leaves: mineral contents in leaves; assay type: in vivo, Chinese leaves "Kasumi"; details: plant batch 1; for Iron content in ppm / Manganese content in ppm: Table 3
# Procedure: as §1
# [3] = plant batch 1, S 8 mg, lignosulfonate 2 mg, mixture M 10 mg per pot/week
# [4] = plant batch 1, S 80 mg, lignosulfonate 20 mg, mixture M 100 mg per pot/week
# [5] = plant batch 2, S 8 mg, lignosulfonate 2 mg, mixture M 10 mg per pot/week
# [6] = plant batch 2, S 80 mg, lignosulfonate 20 mg, mixture M 100 mg per pot/week
# [7] = S 8 mg, lignosulfonate 2 mg, mixture M 10 mg
# [8] = S 80 mg, lignosulfonate 20 mg, mixture M 100 mg
smiles,measurement,setting,value
"S1SSSSSSS1 [Sulfur, sulfur]",Effect on growth (in words),"Chinese leaves [1]; increasing additions, in particular in the first batch of plants",no growth-promoting effect
same,Fresh-matter yield,Chinese leaves [1]; [3],106 g/container
same,Fresh-matter yield % of untreated,Chinese leaves [1]; [3],97 % of untreated
same,Fresh-matter yield,Chinese leaves [1]; [4],108 g/container
same,Fresh-matter yield % of untreated,Chinese leaves [1]; [4],99 % of untreated
same,Fresh-matter yield,Chinese leaves [1]; [5],67 g/container
same,Fresh-matter yield % of untreated,Chinese leaves [1]; [5],96 % of untreated
same,Fresh-matter yield,Chinese leaves [1]; [6],68 g/container
same,Fresh-matter yield % of untreated,Chinese leaves [1]; [6],97 % of untreated
same,Iron content in ppm,Chinese leaves [2]; [7],140 ppm
same,Manganese content in ppm,Chinese leaves [2]; [7],66 ppm
same,Iron content in ppm,Chinese leaves [2]; [8],174 ppm
same,Manganese content in ppm,Chinese leaves [2]; [8],67 ppm
same,Fe content in leaves,Chinese leaves [2]; [7],140 ppm in DM
same,Iron content in % of untreated,Chinese leaves [2]; [7],127 % of untreated
same,K content in leaves,Chinese leaves [2]; [7],5.23 % in DM
same,Manganese content in % of untreated,Chinese leaves [2]; [7],101 % of untreated
same,Mg content in leaves,Chinese leaves [2]; [7],0.24 % in DM
same,Mn content in leaves,Chinese leaves [2]; [7],66 ppm in DM
same,N content in leaves,Chinese leaves [2]; [7],3.57 % in DM
same,P content in leaves,Chinese leaves [2]; [7],0.46 % in DM
same,Fe content in leaves,Chinese leaves [2]; [8],174 ppm in DM
same,Iron content in % of untreated,Chinese leaves [2]; [8],158 % of untreated
same,K content in leaves,Chinese leaves [2]; [8],5.57 % in DM
same,Manganese content in % of untreated,Chinese leaves [2]; [8],103 % of untreated
same,Mg content in leaves,Chinese leaves [2]; [8],0.25 % in DM
same,Mn content in leaves,Chinese leaves [2]; [8],67 ppm in DM
same,N content in leaves,Chinese leaves [2]; [8],3.86 % in DM
same,P content in leaves,Chinese leaves [2]; [8],0.50 % in DM
